In patent US8754073B2, “Substituted piperazino-dihydrothienopyrimidines” (Boehringer Ingelheim International GmbH, priority 2007, dated 2014):

Biological target: PDE4B (Homo sapiens, UniProt Q07343)
Experiment: Scintillation Proximity Assay (SPA) of PDE4B enzyme activity ([H3]-cAMP cleavage)
Type: biochemical
Settings: test substance 1 μM
Experimental: The inhibitions (in %) at 1 μM of the individual Example substances are given in the following Table of Examples and were determined as follows:
The Scintillation Proximity Assay (SPA) (GE Healthcare, No. TRKQ7090) was carried out by using the different affinities of cyclic 3′-5′-adenosinemonophosphate (cAMP, low affinity) and linear 5′-adenosinemonophosphate (AMP, high affinity) for yttrium silicate scintillator beads. The cAMP specific phosphodiesterase (PDE) PDE4B cleaves the 3′-phosphoester bond of tritium-labelled [H3]-cAMP to form [H3]-5′-AMP. This [H3]-AMP accumulates on the scintillator beads because of its higher affinity for them and causes scintillation events (flashes of light) which are measured in a Wallac Microbeta Scintillation Counter.
The experiment starts with a one-hour incubation of [H3]-cAMP with the PDE4B enzyme in assay buffer at 30° C., in each case once with the Example substance to be tested (in a concentration of 1 μM) and once without the Example substance to be tested.
After this incubation, the reaction is stopped by the addition of the beads. The beads have an opportunity to settle in the next 45 minutes, then the measurement is carried out in the Scintillation Counter. If the substance is capable of inhibiting the enzymatic activity of the PDE4B, less [H3]-AMP is produced during the incubation phase and fewer scintillation events can be measured.

[1] = one-hour incubation with [H3]-cAMP at 30° C.
[2] = one-hour incubation of [H3]-cAMP with PDE4B enzyme at 30° C.

Sequence of PDE4B (Q07343 whole entry, species assumed): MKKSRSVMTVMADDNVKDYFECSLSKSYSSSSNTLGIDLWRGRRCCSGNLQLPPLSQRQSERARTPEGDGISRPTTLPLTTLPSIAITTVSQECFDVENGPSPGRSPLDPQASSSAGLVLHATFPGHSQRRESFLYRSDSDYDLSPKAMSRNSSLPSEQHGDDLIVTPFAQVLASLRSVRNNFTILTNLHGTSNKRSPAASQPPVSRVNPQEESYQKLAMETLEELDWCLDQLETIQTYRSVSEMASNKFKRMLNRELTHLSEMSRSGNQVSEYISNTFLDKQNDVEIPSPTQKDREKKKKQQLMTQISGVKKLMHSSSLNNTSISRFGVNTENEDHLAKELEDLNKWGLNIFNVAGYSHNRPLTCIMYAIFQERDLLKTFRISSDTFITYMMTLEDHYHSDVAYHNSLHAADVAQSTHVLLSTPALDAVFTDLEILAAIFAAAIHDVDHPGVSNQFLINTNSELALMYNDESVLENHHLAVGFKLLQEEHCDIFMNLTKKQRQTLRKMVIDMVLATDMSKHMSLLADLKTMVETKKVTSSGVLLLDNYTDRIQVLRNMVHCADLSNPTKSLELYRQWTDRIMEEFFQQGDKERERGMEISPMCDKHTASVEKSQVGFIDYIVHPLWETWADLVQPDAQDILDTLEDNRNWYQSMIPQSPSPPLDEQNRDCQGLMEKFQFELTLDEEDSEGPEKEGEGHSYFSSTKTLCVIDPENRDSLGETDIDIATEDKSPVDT

| Structure (SMILES) | inhibition at 1 µM [1] | inhibition at 1 µM [2] |
| --- | --- | --- |
| CN1C[C@@H](Nc2nc(N3CCC(CNS(C)(=O)=O)(c4ccccc4)CC3)nc3c2[S+]([O-])CC3)CCC1=O (some centres unmarked) [Example 253, N-{1-[4-(1-Methyl-6-Oxo-Piperidin-3-Ylamino)-5-Oxo-6,7-Dihydro-5H-5λ^4-Thieno[3,2-d]Pyrimidin-2-Yl]-4-Phenylpiperidin-4-Ylmethyl}-Methanesulphonamide] | 92% | – |
| Cc1nn(C)c(C)c1CNC(=O)c1ccc(OC2CCN(c3nc4c(c(NC5CCOCC5)n3)[S+]([O-])CC4)CC2)cc1 (centres unmarked) [Example 243] | 94% | – |
| N#CC1(c2ccccc2)CCN(c2nc3c(c(NC4(CO)CC4)n2)[S+]([O-])CC3)CC1 (centres unmarked) [Example 40] | – | 94% |
| [O-][S+]1CCc2nc(N3CCC(c4nc5ccncc5[nH]4)CC3)nc(NC3CCOCC3)c21 (centres unmarked) [Example 213] | 88% | – |
| CCc1[nH]c2ccc(F)cc2c1C1CCN(c2nc3c(c(NC4CCOCC4)n2)[S+]([O-])CC3)CC1 (centres unmarked) [Example 67] | – | 93% |
| CN1C[C@@H](Nc2nc(N3CCC(c4cccc(O)c4)CC3)nc3c2[S+]([O-])CC3)CCC1=O (some centres unmarked) [Example 46] | – | 97% |
| [O-][S+]1CCc2nc(N3CCC(c4ccc(Cl)cc4)CC3)nc(NC3(CO)CC3)c21 (centres unmarked) [Example 2, (1-{2-[4-(4-Chlorophenyl)-Piperidin-1-Yl]-5-Oxo-6,7-Dihydro-5H-5λ^4-Thieno[3,2-d]Pyrimidin-4-Ylamino}-Cyclopropyl)-Methanol] | – | 94% |
| O=C(c1ccc(C2CCN(c3nc4c(c(NC5CCOCC5)n3)[S+]([O-])CC4)CC2)cc1)N(C1CCOCC1)C1CC1 (centres unmarked) [Example 225] | 89% | – |
| CN1C[C@@H](Nc2nc(N3CCC(c4cc5ccccc5o4)CC3)nc3c2[S+]([O-])CC3)CCC1=O (some centres unmarked) [Example 187] | 98% | – |
| CCc1[nH]c2ccc(F)cc2c1C1CCN(c2nc3c(c(N[C@@H](CO)C(C)C)n2)[S+]([O-])CC3)CC1 (stereo partly drawn) [Example 22, (R)-2-{2-[4-(2-Ethyl-5-Fluoro-1H-Indol-3-Yl)-Piperidin-1-Yl]-5-Oxo-6,7-Dihydro-5H-5λ^4-Thieno[3,2-d]Pyrimidin-4-Ylamino}-3-Methylbutan-1-Ol] | – | 86% |
| CC(C)(O)C1(Nc2nc(N3CCC(c4ccc(Cl)cc4)CC3)nc3c2[S+]([O-])CC3)CC1 (centres unmarked) [Example 185, 2-(1-{2-[4-(4-chlorophenyl)-piperidin-1-yl]-5-oxo-6,7-dihydro-5H-5λ^4-thieno[3,2-d]pyrimidin-4-ylamino}-cyclopropyl)-propan-2-ol] | 94% | – |

Continued, values first:

| inhibition at 1 µM [1] | inhibition at 1 µM [2] | Structure (SMILES) |
| --- | --- | --- |
| 95% | – | [O-][S+]1CCc2nc(N3CCC(c4nc(-c5ccccc5)c(-c5ccccc5)o4)CC3)nc(NC3CCOCC3)c21 (centres unmarked) [Example 279] |
| 95% | – | Cc1oc(C2CCN(c3nc4c(c(N[C@H]5CCC(=O)N(C)C5)n3)[S+]([O-])CC4)CC2)nc1-c1ccccc1 (some centres unmarked) [Example 275, 1-methyl-5-{2-[4-(5-methyl-4-phenyloxazol-2-yl)-piperidin-1-yl]-5-oxo-6,7-dihydro-5H-5λ^4-thieno[3,2-d]pyrimidin-4-ylamino}-piperidin-2-one] |
| 94% | – | COCC(=O)N(C)CC1(c2ccccc2)CCN(c2nc3c(c(NC4CCOCC4)n2)[S+]([O-])CC3)CC1 (centres unmarked) [Example 323, 2-methoxy-N-methyl-N-{1-[5-oxo-4-(tetrahydropyran-4-ylamino)-6,7-dihydro-5H-5λ^4-thieno[3,2-d]pyrimidin-2-yl]-4-phenylpiperidin-4-ylmethyl}-acetamide] |
| 93% | – | CC(C)(NC(=O)c1cccc(C2CCN(c3nc4c(c(NC5CCOCC5)n3)[S+]([O-])CC4)CC2)c1)c1ccncc1 (centres unmarked) [Example 255] |
| 89% | – | CN1C[C@@H](Nc2nc(N3CCC(c4cc(-c5cccs5)[nH]n4)CC3)nc3c2[S+]([O-])CC3)CCC1=O (some centres unmarked) [Example 286] |
| – | 85% | CN1C[C@@H](Nc2nc(N3CCC(c4ccc(Cl)cc4)CC3)nc3c2S(=O)(=O)CC3)CCC1=O [Example 335, 5-{2-[4-(4-chlorophenyl)-piperidin-1-yl]-5.5-dioxo-6,7-dihydro-5H-5λ^6-thieno[3,2-d]pyrimidin-4-ylamino}-1-methylpiperidin-2-one] |
